Test results from PMC6825211 (Nature Communications, 2019).
Several values for one entry are separate records, joined by “and”; a condition that tells them apart may be missing. Equal values may be shown once.

Key:
ABL1 = ABL1 (Homo sapiens, UniProt P00519); assay: Nanosyn kinase profiling, mobility shift assay; settings: read-out: % inhibition by neratinib
PI3-KINASE-ALPHA = PI3-KINASE-ALPHA (Homo sapiens, UniProt P42336); assay: Nanosyn kinase profiling, mobility shift assay; settings: read-out: % inhibition by neratinib
MLD–STZ C57BL/6J mice = assay: MLD–STZ model: β-cell mass; format: in vivo, mouse; parameters: BCM: unit not given here
Procedure: C57Bl/6J mice were injected with 40 mg/kg streptozotocin or citrate buffer for 5 consecutive days. […] In d, basal glucose values were normalized to 100%. e Insulin secretion measured from retro-orbital blood draw during an ipGTT measured before (0 min) and 15 min after glucose injection; data are expressed as the ratio of secreted insulin at 15 min/0 min (stimulatory index). f The ratio of secreted insulin and glucose is calculated at fed state. g–i Mice were killed at day 35. g β-cell mass (given as percentage of the whole pancreatic section from ten sections spanning the width of the pancreas) and quantitative analyses from triple staining for h TUNEL or i Ki67, insulin, and DAPI expressed as percentage of TUNEL- or Ki67-positive β-cells ±SEM. An average number of 2331 (h), or 26369 (i) β-cells were counted. n = 9 mice/group for (a); n = 4–12 for (b); n = 5–15 for (c) and (d); n = 12–19 for (e); n = 8–14 for (f); n = 4–9 for (g); n = 4–11 for (h); and n = 6–11 mice/groupfor (i); all from three independent experiments).
For morphometric data, ten sections (spanning the width of the pancreas) per mouse were analyzed. Pancreatic tissue area and insulin-positive area were determined by computer-assisted measurements by using a Nikon MEA53200 (Nikon GmbH, Dusseldorf, Germany) microscope, and images were acquired by using NIS-Elements software (Nikon). β-cell mass was obtained by multiplying the β-cell fraction by the weight of the pancreas.

human islets = assay: β-cell apoptosis (TUNEL/insulin) under diabetogenic conditions; format: cell-based; settings: for mean TUNEL/isolation/%: 72 h
Procedure: . pThr183), caspase-3 cleavage, and GAPDH or actin were analyzed by western blotting. […] Scale bar, 100 μm. […]; all by Student’s t tests.
Human islets were isolated from eight pancreases of nondiabetic organ donors at PRODO Labs and at Lille University and cultured on extracellular matrix-coated dishes (Novamed, Jerusalem, Israel)[62] or on Biocoat Collagen I coated dishes (#356400, Corning, ME, USA). […] The clonal rat β-cell line INS-1E was kindly provided by Dr. Claes Wollheim, Geneva & Lund University. Human islets were cultured in complete CMRL-1066 (Invitrogen) medium at 5.5 mM glucose, mouse islets and INS-1E cells at complete RPMI-1640 medium at 11.1 mM glucose. […] . Palmitic acid (Sigma) was dissolved at 10 mmol/l in RPMI-1640 medium containing 11% fatty acid–free bovine serum albumin (BSA) (Sigma) under an N2-atmosphere and added to the culture at 0.5 mM[64]. […] . Isolated human islets or INS-1E cells were infected with adenovirus carrying LacZ as control or MST1 or LATS2 (all Vector Biolabs), at a multiplicity of infection of 100 (human islets) or 20 (INS-1E) for 4 h[11]. Adenovirus was subsequently washed off with PBS and replaced by fresh medium with 10% FBS and the respective analysis performed after 48 h post infection.
Mouse pancreases were dissected and fixed in 4% formaldehyde at 4 °C for 12 h before embedding in paraffin[62]. Two-four-micrometer sections were deparaffinized, rehydrated, and incubated overnight at 4 °C with anti-PDX-1 (Abcam; #47267), anti-Glut2 (Chemicon; #07-1402), anti-Ki67 (Dako; #M7249), anti-phospho-Histone H3 (Ser10; Merck #06-570), and anti-NKX6.1 (DSHB, University of Iowa #F55A12[66]) in combination with TSA (Invitrogen #T30955), or for 2 h at room temperature with anti-insulin (Dako; A0546) antibodies (all at a dilution of 1:100, except anti-PDX-1, which was diluted 1:400) followed by fluorescein isothiocyanate (FITC)- or Cy3-conjugated secondary antibodies (Jackson ImmunoResearch Laboratories, West Grove, PA). Slides were mounted with Vectashield with 4′6-diamidino-2-phenylindole (DAPI) (Vector Labs). β-cell apoptosis was analyzed by the terminal deoxynucleotidyl transferase-mediated dUTP nick-end labeling (TUNEL) technique according to the manufacturer’s instructions (In Situ Cell Death Detection Kit, TMR red; Roche) and double stained for insulin. Fluorescence was analyzed by using a Nikon MEA53200 (Nikon GmbH, Dusseldorf, Germany) microscope, and images were acquired by using NIS-Elements software (Nikon).

MST1 = molecular target: T1, MST1 (Homo sapiens, UniProt Q13043); assay: LanthaScreen Eu kinase binding assay (HTS and dose response); parameters: purchased ThermoFisher; settings: three experiments
T1 sequence (Q13043 1-487): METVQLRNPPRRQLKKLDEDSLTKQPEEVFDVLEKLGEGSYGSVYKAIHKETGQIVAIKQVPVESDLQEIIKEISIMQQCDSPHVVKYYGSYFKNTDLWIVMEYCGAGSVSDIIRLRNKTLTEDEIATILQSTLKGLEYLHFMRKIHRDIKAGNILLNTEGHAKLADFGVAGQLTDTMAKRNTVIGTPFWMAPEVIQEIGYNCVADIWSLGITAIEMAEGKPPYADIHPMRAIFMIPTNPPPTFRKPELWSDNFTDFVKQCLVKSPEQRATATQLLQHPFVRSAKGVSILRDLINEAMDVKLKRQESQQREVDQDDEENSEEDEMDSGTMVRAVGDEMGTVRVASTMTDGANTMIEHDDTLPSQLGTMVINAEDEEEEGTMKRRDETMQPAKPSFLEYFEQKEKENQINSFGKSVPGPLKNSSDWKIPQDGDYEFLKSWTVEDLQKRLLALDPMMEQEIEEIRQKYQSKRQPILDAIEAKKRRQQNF
Procedure: A total of 39 hits were selected for 9-point dose response confirmation in triplicate, starting at 1 μM followed by 1:5 serial dilution.
Compounds in 1000× DMSO stock solution were dispensed by using Echo555 liquid dispensing system (Labcyte, CA) to 1536-well microplate (Corning, NY). Kinase buffer A (ThermoFisher, MA) was prepared and added to each well. […] Each reagent was added to the microplate in equal volume.

[1] = tested on: obese diabetic Lepr db/db mice; assay: db/db model: β-cell proliferation (pHH3); format: in vivo, mouse; settings: dbdb mice

PI3-KINASE-ALPHA, sequence (P42336 whole entry): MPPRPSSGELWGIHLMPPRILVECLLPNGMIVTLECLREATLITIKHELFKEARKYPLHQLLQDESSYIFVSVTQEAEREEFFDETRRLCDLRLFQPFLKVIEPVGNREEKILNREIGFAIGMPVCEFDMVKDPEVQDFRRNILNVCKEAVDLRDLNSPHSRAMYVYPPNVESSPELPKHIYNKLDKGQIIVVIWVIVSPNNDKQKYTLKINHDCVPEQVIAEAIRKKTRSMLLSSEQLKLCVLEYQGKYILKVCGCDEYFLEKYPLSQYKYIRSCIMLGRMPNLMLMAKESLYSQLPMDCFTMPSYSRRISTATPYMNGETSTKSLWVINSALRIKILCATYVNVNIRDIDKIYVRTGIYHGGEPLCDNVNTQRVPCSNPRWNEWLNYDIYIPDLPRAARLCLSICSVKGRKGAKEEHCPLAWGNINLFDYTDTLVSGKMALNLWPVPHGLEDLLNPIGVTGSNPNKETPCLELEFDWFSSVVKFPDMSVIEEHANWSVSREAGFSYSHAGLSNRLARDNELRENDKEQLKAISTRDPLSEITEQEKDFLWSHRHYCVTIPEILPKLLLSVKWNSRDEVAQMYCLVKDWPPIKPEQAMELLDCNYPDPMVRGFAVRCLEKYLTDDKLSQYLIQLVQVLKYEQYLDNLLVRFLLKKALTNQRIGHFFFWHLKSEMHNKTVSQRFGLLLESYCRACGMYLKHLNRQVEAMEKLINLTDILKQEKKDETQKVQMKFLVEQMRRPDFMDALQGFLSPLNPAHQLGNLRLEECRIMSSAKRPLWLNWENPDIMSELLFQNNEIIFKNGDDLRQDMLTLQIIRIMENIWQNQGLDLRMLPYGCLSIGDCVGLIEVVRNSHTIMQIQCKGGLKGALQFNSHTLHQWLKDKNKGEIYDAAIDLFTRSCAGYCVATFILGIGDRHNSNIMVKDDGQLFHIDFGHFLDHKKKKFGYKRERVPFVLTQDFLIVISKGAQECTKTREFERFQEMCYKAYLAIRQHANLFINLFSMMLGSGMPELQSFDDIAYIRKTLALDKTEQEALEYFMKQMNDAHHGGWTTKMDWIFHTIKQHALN
PI3-KINASE-ALPHA, sequence (P27986 whole entry partner): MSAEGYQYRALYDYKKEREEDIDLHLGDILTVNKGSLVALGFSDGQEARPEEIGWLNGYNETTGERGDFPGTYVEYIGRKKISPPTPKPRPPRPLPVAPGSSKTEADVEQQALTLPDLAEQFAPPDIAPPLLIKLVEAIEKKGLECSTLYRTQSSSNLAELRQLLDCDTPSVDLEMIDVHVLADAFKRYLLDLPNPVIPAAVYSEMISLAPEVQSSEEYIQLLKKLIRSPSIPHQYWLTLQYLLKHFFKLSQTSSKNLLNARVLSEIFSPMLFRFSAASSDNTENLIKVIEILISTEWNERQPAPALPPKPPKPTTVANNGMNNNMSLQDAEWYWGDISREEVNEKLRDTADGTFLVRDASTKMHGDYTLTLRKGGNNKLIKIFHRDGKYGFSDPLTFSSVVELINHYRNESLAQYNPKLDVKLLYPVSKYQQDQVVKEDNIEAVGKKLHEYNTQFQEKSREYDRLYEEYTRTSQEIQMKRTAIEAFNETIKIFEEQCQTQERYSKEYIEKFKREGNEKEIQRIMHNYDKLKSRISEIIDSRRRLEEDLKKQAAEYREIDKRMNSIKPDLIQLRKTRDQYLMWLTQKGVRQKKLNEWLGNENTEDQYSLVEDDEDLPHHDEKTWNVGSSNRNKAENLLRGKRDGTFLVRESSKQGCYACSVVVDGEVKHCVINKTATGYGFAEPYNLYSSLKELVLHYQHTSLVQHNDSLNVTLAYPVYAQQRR
ABL1, sequence (P00519 whole entry): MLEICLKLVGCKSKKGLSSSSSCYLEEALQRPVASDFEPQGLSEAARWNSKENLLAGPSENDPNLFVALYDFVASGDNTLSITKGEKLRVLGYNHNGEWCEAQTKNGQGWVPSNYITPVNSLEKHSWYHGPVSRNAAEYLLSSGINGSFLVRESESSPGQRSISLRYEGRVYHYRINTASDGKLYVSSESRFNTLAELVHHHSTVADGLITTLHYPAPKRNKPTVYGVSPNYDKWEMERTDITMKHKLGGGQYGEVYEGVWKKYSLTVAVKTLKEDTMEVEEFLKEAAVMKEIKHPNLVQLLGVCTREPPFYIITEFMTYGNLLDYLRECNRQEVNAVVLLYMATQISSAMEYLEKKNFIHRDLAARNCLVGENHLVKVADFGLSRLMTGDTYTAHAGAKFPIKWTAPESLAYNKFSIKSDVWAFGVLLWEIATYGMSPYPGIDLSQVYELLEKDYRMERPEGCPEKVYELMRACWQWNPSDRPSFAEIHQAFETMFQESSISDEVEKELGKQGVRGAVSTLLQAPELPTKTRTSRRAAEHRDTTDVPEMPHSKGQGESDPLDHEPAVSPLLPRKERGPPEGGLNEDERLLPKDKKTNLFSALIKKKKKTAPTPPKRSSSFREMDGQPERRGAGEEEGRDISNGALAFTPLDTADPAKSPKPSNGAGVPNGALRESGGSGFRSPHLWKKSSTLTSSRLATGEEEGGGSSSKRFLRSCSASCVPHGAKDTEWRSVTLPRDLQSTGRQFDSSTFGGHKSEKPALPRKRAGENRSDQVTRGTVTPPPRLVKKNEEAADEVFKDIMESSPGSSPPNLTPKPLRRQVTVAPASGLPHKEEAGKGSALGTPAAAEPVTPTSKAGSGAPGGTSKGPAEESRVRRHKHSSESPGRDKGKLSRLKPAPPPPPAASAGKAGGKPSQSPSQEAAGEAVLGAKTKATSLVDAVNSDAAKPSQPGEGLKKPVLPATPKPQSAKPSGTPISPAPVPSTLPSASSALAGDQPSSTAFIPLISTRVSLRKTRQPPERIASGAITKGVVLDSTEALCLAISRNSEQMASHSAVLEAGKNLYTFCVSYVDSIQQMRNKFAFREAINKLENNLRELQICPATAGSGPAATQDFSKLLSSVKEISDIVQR

## CCOc1cc2ncc(C#N)c(Nc3ccc(OCc4ccccn4)c(Cl)c3)c2cc1NC(=O)/C=C/CN(C)C [neratinib]
ABL1
  inhibition at 10 µM: 36%
PI3-KINASE-ALPHA
  inhibition at 10 µM: 18%
MLD–STZ C57BL/6J mice; NeraCtr group (no STZ), MEAN
  BCM: 1.179
MLD–STZ C57BL/6J mice; NeraCtr group (no STZ), individual mice
  BCM: 1.212 and 1.511 and 1.035 and 0.9571
MLD–STZ C57BL/6J mice; NeraSTZ group, MEAN
  BCM: 0.6212
MLD–STZ C57BL/6J mice; NeraSTZ group, individual mice
  BCM: 1.314 and 0.4366 and 0.7768 and 0.269 and 0.7149 and 0.2555 and 0.5691 and 0.3836 and 0.8706
MLD–STZ C57BL/6J mice; STZ mice, day 35
  β-cell mass: restored β-cell mass
Human islets; 25 µM neratinib, human islets
  toxicity at basal control levels: did not result in any detectable toxicity
Human islets; HG/Pal + NERA, mean of isolations, untreated = 100
  mean TUNEL/isolation/%: 180.73%
Human islets; HG/Pal + NERA, single islet isolations, untreated mean = 100
  mean TUNEL/isolation/%: 224.286% and 136.508% and 181.395%
Human islets; ILIF + NERA, mean of isolations, untreated = 100
  mean TUNEL/isolation/%: 205.757%
MST1; neratinib 0.02 nM
  MST1 (% activity): 87.31% and 98.20% and 108.86%
MST1; neratinib 0.06 nM
  MST1 (% activity): 99.80% and 103.92%
  activity at 60 pM: 114%
MST1; neratinib 0.17 nM
  MST1 (% activity): 91.02% and 100.09%
  activity at 0.00017 µM: 97.1%
MST1; neratinib 0.51 nM
  MST1 (% activity): 98.60% and 98.84%
  activity at 0.00051 µM: 101%
MST1; neratinib 1.52 nM
  MST1 (% activity): 88.42% and 89.31%
  activity at 0.00152 µM: 103%
MST1; neratinib 4.57 nM
  MST1 (% activity): 67.07% and 80.02%
  activity at 0.00457 µM: 82.2%
MST1; neratinib 13.72 nM
  MST1 (% activity): 46.34% and 78.85% and 63.80%
MST1; neratinib 41.15 nM
  MST1 (% activity): 53.70% and 49.03%
  activity at 0.04115 µM: 48.9%
MST1; neratinib 123.46 nM
  MST1 (% activity): 24.15% and 30.50%
  activity at 0.12346 µM: 30.6%
MST1; neratinib 370.37 nM
  MST1 (% activity): 7.98% and 6.57%
  activity at 0.37037 µM: 11.7%
MST1; neratinib 1111.11 nM
  MST1 (% activity): 8.75% and 1.83%
MST1; neratinib 3333.33 nM
  MST1 (% activity): 4.17% and -2.20% and -1.83%
[1]; Mean
  pHH3 %/ mouse: 0.4112%
[1]; individual mice
  pHH3 %/ mouse: 0.7567% and 0.6289% and 0.2824% and 0.1109% and 0.2748% and 0.4135%
